# Experimental data published in ChEMBL document CHEMBL1177794, “Broad spectrum alkynyl inhibitors of T315I Bcr-Abl” (Bioorg Med Chem Lett, 2010).
# Legend:
# [1] = target: Proto-oncogene tyrosine-protein kinase receptor Ret (Homo sapiens) (UniProt P07949); experiment: Inhibition of RET at 10 uM; values are per cent of control
# [2] = system: Receptor-type tyrosine-protein kinase FLT3 (Homo sapiens), P36888 [R834Q]; experiment: Inhibition of FLT3 R834Q mutant at 10 uM; settings: values are per cent of control
# [3] = target: Mitogen-activated protein kinase kinase kinase 9 (Homo sapiens) (UniProt P80192); experiment: Inhibition of MLK1 at 10 uM
# [4] = target: LIM domain kinase 2 (Homo sapiens) (UniProt P53671); experiment: Inhibition of LIMK2 at 10 uM; settings: values are per cent of control
# [5] = system: Mast/stem cell growth factor receptor Kit (Homo sapiens), P10721 [D816H]; experiment: Inhibition of KIT D816H mutant at 10 uM; settings: values are per cent of control
# [6] = target: Ribosomal protein S6 kinase alpha-6 (Homo sapiens) (UniProt Q9UK32); experiment: Inhibition of RSK4 N-terminal domain1 at 10 uM
# [7] = target: TRAF2 and NCK-interacting protein kinase (Homo sapiens) (UniProt Q9UKE5); experiment: Inhibition of TNIK at 10 uM; settings: values are per cent of control
# [8] = system: Tyrosine-protein kinase ABL1 (Homo sapiens), P00519 [Y253F]; experiment: Inhibition of phosphorylated ABL1 Y253F mutant at 10 uM; settings: values are per cent of control
# [9] = target: Casein kinase I isoform alpha-like (Homo sapiens) (UniProt Q8N752); experiment: Inhibition of CSNK1A1L at 10 uM; settings: values are per cent of control
# [10] = system: Epidermal growth factor receptor (Homo sapiens), P00533 [L858R,T790M]; experiment: Inhibition of EGFR L858R, T790M mutant at 10 uM; values are per cent of control
# [11] = target: Serine/threonine-protein kinase ICK (Homo sapiens) (UniProt Q9UPZ9); experiment: Inhibition of ICK at 10 uM; settings: values are per cent of control
# [12] = target: Platelet-derived growth factor receptor alpha (Homo sapiens) (UniProt P16234); experiment: Inhibition of PDGFRA at 10 uM; settings: values are per cent of control
# [13] = target: Vascular endothelial growth factor receptor 2 (Homo sapiens) (UniProt P35968); experiment: Inhibition of VEGFR2 at 10 uM; settings: values are per cent of control
# Chain of Vascular endothelial growth factor receptor 2 (Homo sapiens) (P35968 whole entry): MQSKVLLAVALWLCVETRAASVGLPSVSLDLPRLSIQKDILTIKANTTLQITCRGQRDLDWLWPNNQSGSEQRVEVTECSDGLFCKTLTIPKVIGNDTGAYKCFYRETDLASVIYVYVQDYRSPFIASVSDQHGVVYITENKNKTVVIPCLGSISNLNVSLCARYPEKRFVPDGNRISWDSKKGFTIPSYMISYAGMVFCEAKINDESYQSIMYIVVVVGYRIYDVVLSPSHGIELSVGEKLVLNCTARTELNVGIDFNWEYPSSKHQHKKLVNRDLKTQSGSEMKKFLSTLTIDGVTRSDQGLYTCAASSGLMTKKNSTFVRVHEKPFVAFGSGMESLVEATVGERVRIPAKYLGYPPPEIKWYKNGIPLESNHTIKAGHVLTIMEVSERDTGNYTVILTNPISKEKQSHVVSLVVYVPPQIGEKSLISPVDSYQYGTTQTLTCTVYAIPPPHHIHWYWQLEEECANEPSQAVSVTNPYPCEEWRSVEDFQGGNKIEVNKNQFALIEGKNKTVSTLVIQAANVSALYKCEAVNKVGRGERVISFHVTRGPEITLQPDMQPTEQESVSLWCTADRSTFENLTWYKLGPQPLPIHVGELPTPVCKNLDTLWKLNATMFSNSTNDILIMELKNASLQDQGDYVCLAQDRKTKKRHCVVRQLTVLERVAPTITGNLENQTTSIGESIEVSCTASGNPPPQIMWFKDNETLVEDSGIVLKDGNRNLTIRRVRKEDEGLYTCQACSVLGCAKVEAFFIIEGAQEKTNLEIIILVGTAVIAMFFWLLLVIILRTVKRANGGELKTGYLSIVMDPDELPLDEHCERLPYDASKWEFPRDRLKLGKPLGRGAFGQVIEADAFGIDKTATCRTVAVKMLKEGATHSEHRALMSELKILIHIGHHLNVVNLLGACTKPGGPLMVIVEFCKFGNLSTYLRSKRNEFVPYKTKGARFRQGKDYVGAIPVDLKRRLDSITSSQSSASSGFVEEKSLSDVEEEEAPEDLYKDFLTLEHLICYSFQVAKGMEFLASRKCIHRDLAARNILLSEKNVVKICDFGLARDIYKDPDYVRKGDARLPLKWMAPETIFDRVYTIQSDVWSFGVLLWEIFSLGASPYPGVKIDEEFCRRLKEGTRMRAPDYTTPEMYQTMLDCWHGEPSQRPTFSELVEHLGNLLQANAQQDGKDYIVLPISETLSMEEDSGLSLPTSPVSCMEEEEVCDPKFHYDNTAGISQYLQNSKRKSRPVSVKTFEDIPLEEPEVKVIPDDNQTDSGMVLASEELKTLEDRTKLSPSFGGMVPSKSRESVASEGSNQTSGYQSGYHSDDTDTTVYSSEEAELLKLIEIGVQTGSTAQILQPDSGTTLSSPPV
# [14] = target: Serine/threonine-protein kinase Chk2 (Homo sapiens) (UniProt O96017); experiment: Inhibition of CHEK2 at 10 uM; values are per cent of control
# [15] = target: Serine/threonine-protein kinase TAO3 (Homo sapiens) (UniProt Q9H2K8); experiment: Inhibition of TAOK3 at 10 uM
# Chain of Serine/threonine-protein kinase TAO3 (Homo sapiens) (Q9H2K8 whole entry): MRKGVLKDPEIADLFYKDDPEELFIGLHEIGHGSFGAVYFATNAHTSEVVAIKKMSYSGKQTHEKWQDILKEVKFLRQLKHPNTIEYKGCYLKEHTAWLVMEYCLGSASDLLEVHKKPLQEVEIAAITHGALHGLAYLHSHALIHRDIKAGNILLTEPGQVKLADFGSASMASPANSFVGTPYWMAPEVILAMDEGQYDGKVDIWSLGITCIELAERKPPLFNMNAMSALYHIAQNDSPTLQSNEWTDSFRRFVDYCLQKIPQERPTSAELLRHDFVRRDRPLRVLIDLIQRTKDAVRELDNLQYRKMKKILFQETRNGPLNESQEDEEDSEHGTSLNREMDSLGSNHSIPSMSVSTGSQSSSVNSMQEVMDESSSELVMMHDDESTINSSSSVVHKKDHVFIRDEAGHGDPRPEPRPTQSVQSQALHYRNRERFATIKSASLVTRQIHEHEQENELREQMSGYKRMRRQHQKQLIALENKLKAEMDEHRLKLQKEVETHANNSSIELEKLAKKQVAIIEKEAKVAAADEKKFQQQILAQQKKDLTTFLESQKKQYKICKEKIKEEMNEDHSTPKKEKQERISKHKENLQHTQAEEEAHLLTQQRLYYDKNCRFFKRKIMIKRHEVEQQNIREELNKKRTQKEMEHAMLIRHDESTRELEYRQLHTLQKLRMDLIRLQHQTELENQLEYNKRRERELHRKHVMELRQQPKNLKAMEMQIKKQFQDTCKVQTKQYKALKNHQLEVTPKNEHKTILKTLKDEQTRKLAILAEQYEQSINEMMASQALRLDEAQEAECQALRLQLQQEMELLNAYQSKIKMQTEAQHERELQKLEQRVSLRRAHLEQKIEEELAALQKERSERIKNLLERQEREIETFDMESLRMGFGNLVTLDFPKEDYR
# [16] = target: Tyrosine-protein kinase CSK (Homo sapiens) (UniProt P41240); experiment: Inhibition of CSK at 10 uM; values are per cent of control
# [17] = target: Tyrosine-protein kinase Lyn (Homo sapiens) (UniProt P07948); experiment: Inhibition of LYN at 10 uM; values are per cent of control
# [18] = target: Calcium/calmodulin-dependent protein kinase type 1D (Homo sapiens) (UniProt Q8IU85); experiment: Inhibition of CAMK1D at 10 uM; settings: values are per cent of control
# [19] = target: Mitogen-activated protein kinase kinase kinase kinase 5 (Homo sapiens) (UniProt Q9Y4K4); experiment: Inhibition of MAP4K5 at 10 uM; settings: values are per cent of control
# [20] = target: Serine/threonine-protein kinase RIO3 (Homo sapiens) (UniProt O14730); experiment: Inhibition of RIOK3 at 10 uM
# Chain of Serine/threonine-protein kinase RIO3 (Homo sapiens) (O14730 whole entry): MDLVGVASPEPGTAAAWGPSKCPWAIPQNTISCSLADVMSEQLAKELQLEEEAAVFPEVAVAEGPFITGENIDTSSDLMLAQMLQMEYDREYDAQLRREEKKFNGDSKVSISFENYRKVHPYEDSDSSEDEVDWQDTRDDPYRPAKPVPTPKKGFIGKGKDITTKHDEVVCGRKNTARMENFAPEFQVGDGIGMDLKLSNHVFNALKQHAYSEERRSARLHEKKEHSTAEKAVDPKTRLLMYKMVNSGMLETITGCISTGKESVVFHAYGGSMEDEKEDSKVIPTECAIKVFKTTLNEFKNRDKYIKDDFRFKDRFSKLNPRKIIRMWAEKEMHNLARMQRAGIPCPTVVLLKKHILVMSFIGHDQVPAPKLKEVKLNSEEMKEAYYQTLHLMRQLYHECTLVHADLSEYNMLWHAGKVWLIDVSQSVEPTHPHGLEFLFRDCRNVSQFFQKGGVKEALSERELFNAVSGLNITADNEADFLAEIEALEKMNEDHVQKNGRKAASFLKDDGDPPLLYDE
# [21] = target: Fibroblast growth factor receptor 4 (Homo sapiens) (UniProt P22455); experiment: Inhibition of FGFR4 at 10 uM; settings: values are per cent of control
# [22] = target: Serine/threonine-protein kinase PRP4 homolog (Homo sapiens) (UniProt Q13523); experiment: Inhibition of PRP4 at 10 uM
# [23] = target: Serine/threonine-protein kinase PAK 1 (Homo sapiens) (UniProt Q13153); experiment: Inhibition of PAK1 at 10 uM
# [24] = target: Serine/threonine-protein kinase 25 (Homo sapiens) (UniProt O00506); experiment: Inhibition of YSK1 at 10 uM; settings: values are per cent of control
# [25] = target: Serine/threonine-protein kinase pim-1 (Homo sapiens) (UniProt P11309); experiment: Inhibition of PIM1 at 10 uM
# [26] = target: Serine/threonine-protein kinase TNNI3K (Homo sapiens) (UniProt Q59H18); experiment: Inhibition of TNNI3K at 10 uM; settings: values are per cent of control
# [27] = target: Mitogen-activated protein kinase 3 (Homo sapiens) (UniProt P27361); experiment: Inhibition of ERK1 at 10 uM; settings: values are per cent of control
# Chain of Mitogen-activated protein kinase 3 (Homo sapiens) (P27361 whole entry): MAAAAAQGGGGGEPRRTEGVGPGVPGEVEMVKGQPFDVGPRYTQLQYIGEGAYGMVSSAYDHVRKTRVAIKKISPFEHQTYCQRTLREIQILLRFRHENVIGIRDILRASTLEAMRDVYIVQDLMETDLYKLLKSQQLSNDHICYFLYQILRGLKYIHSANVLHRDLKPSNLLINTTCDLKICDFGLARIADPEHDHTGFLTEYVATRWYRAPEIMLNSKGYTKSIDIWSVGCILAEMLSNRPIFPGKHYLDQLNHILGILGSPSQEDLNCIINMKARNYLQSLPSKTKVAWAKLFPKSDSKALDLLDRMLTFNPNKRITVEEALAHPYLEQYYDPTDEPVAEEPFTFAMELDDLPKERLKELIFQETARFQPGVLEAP
# [28] = target: Dual specificity mitogen-activated protein kinase kinase 6 (Homo sapiens) (UniProt P52564); experiment: Inhibition of MEK6 at 10 uM; settings: values are per cent of control
# Chain of Dual specificity mitogen-activated protein kinase kinase 6 (Homo sapiens) (P52564 whole entry): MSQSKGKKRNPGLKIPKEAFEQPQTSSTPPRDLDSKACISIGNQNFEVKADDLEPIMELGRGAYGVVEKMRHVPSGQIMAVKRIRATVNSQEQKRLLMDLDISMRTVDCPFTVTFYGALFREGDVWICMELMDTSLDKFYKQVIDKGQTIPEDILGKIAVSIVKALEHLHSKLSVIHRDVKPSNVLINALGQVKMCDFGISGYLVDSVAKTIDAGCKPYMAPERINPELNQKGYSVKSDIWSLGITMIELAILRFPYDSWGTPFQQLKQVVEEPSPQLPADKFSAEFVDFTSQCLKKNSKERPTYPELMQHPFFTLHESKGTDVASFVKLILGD
# [29] = target: Death-associated protein kinase 1 (Homo sapiens) (UniProt P53355); experiment: Inhibition of DAPK1 at 10 uM; settings: values are per cent of control
# [30] = target: Phosphatidylinositol 3-kinase C2 domain-containing subunit gamma (Homo sapiens) (UniProt O75747); experiment: Inhibition of PIK3C2G at 10 uM
# Chain of Phosphatidylinositol 3-kinase C2 domain-containing subunit gamma (Homo sapiens) (O75747 whole entry, the tested form may be a part): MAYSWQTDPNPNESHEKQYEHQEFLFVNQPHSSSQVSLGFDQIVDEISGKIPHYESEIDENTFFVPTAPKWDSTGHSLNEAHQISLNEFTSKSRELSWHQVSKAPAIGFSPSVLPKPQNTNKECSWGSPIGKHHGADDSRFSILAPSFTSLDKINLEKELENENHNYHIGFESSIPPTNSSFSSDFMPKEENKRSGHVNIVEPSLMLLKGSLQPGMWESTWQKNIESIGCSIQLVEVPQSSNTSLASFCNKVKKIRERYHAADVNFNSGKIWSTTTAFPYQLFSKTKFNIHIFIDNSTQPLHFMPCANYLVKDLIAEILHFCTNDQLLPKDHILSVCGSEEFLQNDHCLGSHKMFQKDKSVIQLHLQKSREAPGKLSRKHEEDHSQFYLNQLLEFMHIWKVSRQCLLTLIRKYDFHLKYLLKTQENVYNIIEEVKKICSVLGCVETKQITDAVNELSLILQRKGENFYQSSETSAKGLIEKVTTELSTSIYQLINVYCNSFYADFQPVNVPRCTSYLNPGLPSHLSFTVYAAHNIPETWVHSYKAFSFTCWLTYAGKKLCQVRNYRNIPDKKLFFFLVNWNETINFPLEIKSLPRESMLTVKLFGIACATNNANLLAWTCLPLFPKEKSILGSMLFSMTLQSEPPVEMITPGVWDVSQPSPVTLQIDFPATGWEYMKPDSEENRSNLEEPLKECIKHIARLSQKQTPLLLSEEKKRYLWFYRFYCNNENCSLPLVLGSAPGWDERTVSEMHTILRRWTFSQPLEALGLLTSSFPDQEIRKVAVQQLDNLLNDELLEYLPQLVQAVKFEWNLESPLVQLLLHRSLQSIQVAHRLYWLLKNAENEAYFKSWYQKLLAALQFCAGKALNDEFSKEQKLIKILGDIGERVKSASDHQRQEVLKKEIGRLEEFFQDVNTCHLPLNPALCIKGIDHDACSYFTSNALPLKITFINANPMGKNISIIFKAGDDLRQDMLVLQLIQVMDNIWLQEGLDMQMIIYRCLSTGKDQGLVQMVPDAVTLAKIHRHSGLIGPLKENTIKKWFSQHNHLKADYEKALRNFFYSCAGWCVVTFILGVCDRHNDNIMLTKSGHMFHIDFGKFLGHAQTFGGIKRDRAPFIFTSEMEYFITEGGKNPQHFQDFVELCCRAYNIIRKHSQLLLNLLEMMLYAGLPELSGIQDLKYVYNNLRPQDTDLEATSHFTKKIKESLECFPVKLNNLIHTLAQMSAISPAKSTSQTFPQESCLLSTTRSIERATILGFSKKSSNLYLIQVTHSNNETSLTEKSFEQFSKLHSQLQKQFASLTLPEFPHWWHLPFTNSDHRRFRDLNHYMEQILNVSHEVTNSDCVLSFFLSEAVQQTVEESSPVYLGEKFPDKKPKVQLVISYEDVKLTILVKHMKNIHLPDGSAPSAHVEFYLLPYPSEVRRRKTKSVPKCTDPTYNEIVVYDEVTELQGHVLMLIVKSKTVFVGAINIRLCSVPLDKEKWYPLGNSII
# [31] = target: Myosin light chain kinase, smooth muscle (Homo sapiens) (UniProt Q15746); experiment: Inhibition of MLCK at 10 uM; values are per cent of control
# [32] = target: Cyclin-dependent kinase 17 (Homo sapiens) (UniProt Q00537); experiment: Inhibition of PCTK2 at 10 uM; settings: values are per cent of control
# [33] = target: Mitogen-activated protein kinase kinase kinase 1 (Homo sapiens) (UniProt Q13233); experiment: Inhibition of MAP3K1 at 10 uM; settings: values are per cent of control
# [34] = target: Tyrosine-protein kinase TXK (Homo sapiens) (UniProt P42681); experiment: Inhibition of TXK at 10 uM; settings: values are per cent of control
# [35] = target: Citron Rho-interacting kinase (Homo sapiens) (UniProt O14578); experiment: Inhibition of CIT at 10 uM; values are per cent of control
# [36] = target: Protein kinase C delta type (Homo sapiens) (UniProt Q05655); experiment: Inhibition of PRKCD at 10 uM
# [37] = target: Epidermal growth factor receptor (Homo sapiens) (UniProt P04626+P00533+Q15303+P21860); experiment: Inhibition of EGFR L747-T751del, Sins mutant at 10 uM; values are per cent of control
# [38] = target: Serine/threonine-protein kinase 26 (Homo sapiens) (UniProt Q9P289); experiment: Inhibition of MST4 at 10 uM
# [39] = system: Epidermal growth factor receptor (Homo sapiens), P00533 [UNDEFINED MUTATION]; experiment: Inhibition of EGFR L747-S752del, P753S mutant at 10 uM; values are per cent of control
# [40] = target: Aurora kinase C (Homo sapiens) (UniProt Q9UQB9); experiment: Inhibition of AURKC at 10 uM; settings: values are per cent of control
# [41] = target: Activin receptor type-1-like (Homo sapiens) (UniProt P37023); experiment: Inhibition of ACVRL1 at 10 uM; settings: values are per cent of control
# [42] = target: Myosin-IIIb (Homo sapiens) (UniProt Q8WXR4); experiment: Inhibition of MYO3B at 10 uM
smiles,measurement,setting,value
CCN1CCN(Cc2ccc(NC(=O)c3ccc(C)c(C#Cc4cccnc4)c3)cc2C(F)(F)F)CC1,"level, % of control",[1],0%
same,"residual binding, % of control",[2],4.2%
same,inhibition,[3],43%
same,"residual binding, % of control",[4],11%
same,"residual binding, % of control",[5],6%
same,inhibition,[6],47%
same,"residual binding, % of control",[7],1.8%
same,"residual binding, % of control",[8],0.15%
same,"residual binding, % of control",[9],89%
same,"level, % of control",[10],100%
same,"residual binding, % of control",[11],80%
same,"residual binding, % of control",[12],0%
same,"residual binding, % of control",[13],0.25%
same,"level, % of control",[14],40%
same,inhibition,[15],0%
same,"level, % of control",[16],0.15%
same,"level, % of control",[17],0.05%
same,"residual binding, % of control",[18],72%
same,"residual binding, % of control",[19],3%
same,inhibition,[20],70%
same,"residual binding, % of control",[21],0%
same,inhibition,[22],54%
same,inhibition,[23],81%
same,"residual binding, % of control",[24],16%
same,inhibition,[25],84%
same,"residual binding, % of control",[26],0%
same,"residual binding, % of control",[27],100%
same,"residual binding, % of control",[28],100%
same,"residual binding, % of control",[29],100%
same,inhibition,[30],100%
same,% of control,[31],60%
same,"residual binding, % of control",[32],8.2%
same,"residual binding, % of control",[33],94%
same,"residual binding, % of control",[34],0.3%
same,"level, % of control",[35],0%
same,inhibition,[36],39%
same,"level, % of control",[37],0.45%
same,inhibition,[38],21%
same,"level, % of control",[39],0.9%
same,"residual binding, % of control",[40],13%
same,"residual binding, % of control",[41],100%
same,inhibition,[42],0%
CCN1CCN(Cc2ccc(NC(=O)c3ccc(C)c(C#Cc4cnc5[nH]ccc5c4)c3)cc2C(F)(F)F)CC1,"level, % of control",[1],0%
same,"residual binding, % of control",[2],7.2%
same,inhibition,[3],1.7%
same,"residual binding, % of control",[4],0.35%
same,"residual binding, % of control",[5],8.2%
same,inhibition,[6],28%
same,"residual binding, % of control",[7],1.6%
same,"residual binding, % of control",[8],0.2%
same,"residual binding, % of control",[9],75%
same,"level, % of control",[10],100%
same,"residual binding, % of control",[11],96%
same,"residual binding, % of control",[12],0%
same,"residual binding, % of control",[13],0.35%
same,"level, % of control",[14],22%
same,inhibition,[15],0%
same,"level, % of control",[16],0.1%
same,"level, % of control",[17],0.05%
same,"residual binding, % of control",[18],68%
same,"residual binding, % of control",[19],1.6%
same,inhibition,[20],38%
same,"residual binding, % of control",[21],0%
same,inhibition,[22],84%
same,inhibition,[23],62%
same,"residual binding, % of control",[24],12%
same,inhibition,[25],100%
same,"residual binding, % of control",[26],0%
same,"residual binding, % of control",[27],96%
same,"residual binding, % of control",[28],88%
same,"residual binding, % of control",[29],94%
same,inhibition,[30],100%
same,% of control,[31],18%
same,"residual binding, % of control",[32],3.7%
same,"residual binding, % of control",[33],96%
same,"residual binding, % of control",[34],0.25%
same,"level, % of control",[35],0%
same,inhibition,[36],24%
same,"level, % of control",[37],0.4%
same,inhibition,[38],11%
same,"level, % of control",[39],0.8%
same,"residual binding, % of control",[40],11%
same,"residual binding, % of control",[41],100%
same,inhibition,[42],0%
